The values below come from US20250161338A1, “Compounds for Anti-aging Intervention” (AGENCY FOR SCIENCE, TECHNOLOGY AND RESEARCH, priority 2022, published 2025).

The subject of assay [1] is prototrophic yeast strain (CEN.PK113-7D). Description: Propidium iodide fluorescence-based CLS method in yeast (incl. high-throughput screening).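 For PI intensity: untreated reference is eight DMSO and water control wells per plate.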 The class given is cell-based, Saccharomyces cerevisiae. The essentials:
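CEN.PK113-7D aged in SD medium at 30 °C with compounds (rapamycin 0–10 nM; sugars 0–8 mM; screen at single concentrations). At each age point cells were stained with 5 μg/mL PI for 15 min; fluorescence was normalized to OD600, background-subtracted, and survival scaled against boiled-cell control.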

For assay [2], the system named is wild-type Saccharomyces cerevisiae CEN.PK113-7D yeast strain. Description: Chronological lifespan analysis in yeast (PI, outgrowth, spotting). The class given is cell-based. How it is done: Yeast strain was recovered from frozen glycerol stock at 30° C. on YPD agar medium. Yeast was left to propagate in SD medium overnight at 30° C. with shaking at 220 revolutions per minute (rpm). Cells propagated overnight were diluted to a starting optical density at 600 nm (OD600) of approximately 0.2 in fresh SD medium to begin the chronological lifespan (CLS) experiments.
CLS experiments were performed in 96-well plates with 200 μL yeast culture. Cellular inoculums were transferred into 96-well plates containing serially double-diluted concentrations (0 to 10 nM) of rapamycin. […] Cells were incubated at 30° C., and the growth was measured at different time points. The growth time point 72 hours was considered as Day 1 for the CLS assay. Cell survival was quantified at various age time points by three different approaches: (i) PI fluorescence-based method, (ii) outgrowth in YPD liquid medium, and (iii) spotting assay (FIG. 1).
Yeast cells (40 μL) from different age time points were transferred into a second 96-well plate (different to the 96-well plate in which the CLS analysis as outlined above was performed). Cells were washed and incubated in 100 μL 1×phosphate buffered saline (PBS) with propidium iodide (PI) (5 μg/mL) for 15 minutes in the dark. Positive and negative control samples were included for quantitative analysis. Positive control (cells boiled at 100° C. for 15 minutes) was PI-stained and processed in the same 96-well plate. Samples without PI-stained cells served as the negative control. After incubation, cells were washed and resuspended in 100 μL PBS. The fluorescence reading of the samples (excitation and emission wavelengths at 535 nm and 617 nm, respectively) and OD600 were measured with a microplate reader (BioTek, Winooski, Vermont, United States). The fluorescence intensity of each sample was normalized with OD600. The background fluorescence signal of the unstained negative sample was subtracted from the normalized fluorescence intensity of each sample. The obtained fluorescence intensity of the positive control (boiled dead cells) was considered 0% cell survival. Cell death was validated by allowing the boiled dead cells to grow in medium. Cell survival at different age time points of samples were calculated by normalizing the fluorescence intensity with positive control sample (boiled cells).
Yeast stationary culture (3 μL) of different age time points were transferred to a second 96-well plate, containing 200 μL YPD medium, and incubated for 24 hours at 30° C. Outgrowth (OD600) of aged cells was measured by the microplate reader. Quantification of cell survival for each age point was determined as relative to Day 1 (considered 100% cell survival). This quantification was performed by using the formula,
Yeast stationary culture (3 μL) of different age time points were spotted onto a YPD agar plate and incubated for 48 hours at 30° C. The outgrowth of aged cells on the YPD agar plate was photographed using the Bio-Rad GelDoc Imaging System (Bio-Rad, Hercules, California, United States).

Entries after “also recorded” stand apart in the source; their conditions may differ.

Take `OC[C@H]1O[C@H](CO)[C@@H](O)[C@@H]1O` [2,5-AM, 2,5-anhydro-D-mannitol]: the “survival of aged cells” value is listed as “approximately 80%” in assay [1] (4 mM and 8 mM, Day 4, without compound approx. 50%); “approximately 75%” in assay [1] (Day 7, without compound less than 20%); “approximately 65%” in assay [2] (8 mM, Day 21, without compound less than 10%). Further, the “Yeast CLS increase” value in assay [1] (concentration tested 300 μg/mL, Yes/No call of the screen) is reported as “Yes”. In assay [1] (concentration tested 300 μg/mL, solvent water, age point Day 7), the PI intensity is 36,240.0. Besides, the “effect on yeast CLS” value in assay [2] (0 to 8 mM in SD medium, up to day 21) was “extended the CLS in a concentration-dependent manner; also recorded: extended the lifespan even at the late stage of chronological aging”; in assay [2] (very low concentrations (2 mM)), “increased CLS”.
